Legend:
Type in all cases: in vitro ADME
[1] = Assay 1. Stability in Simulated Gastric Fluid (SGF); details: 1 μM, 37° C., SGF pH 1.6 with pepsin
Outline: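 Acylated compounds at a final 1 μM (diluted from 1 mM DMSO stock) were incubated at 37 °C in SGF of pH 1.6 NaCl buffer with FaSSIF powder and 0.1 mg/mL pepsin. Aliquots were quenched with acetonitrile at T0 and regular intervals, and degradation rates were determined by LC/MS.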

[2] = Assay 2. Stability in Simulated Intestinal Fluid (SIF); details: 1 μM, 37° C., SIF pH 6.7 with pancreatin
Outline: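 Acylated compounds at 1 μM (from 1 mM DMSO stock) in fresh SIF: FaSSIF with pancreatin in pH 6.7 phosphate buffer, agitated at 37 °C. Aliquots from T0 onward quenched with 1 volume acetonitrile; LC/MS gives degradation rates.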

[3] = Assay 3. Fecal Incubation Stability; details: 1 or 10 μM, human fecal slurry, anaerobic

Structure (SMILES)	Assay 1 (SGF) (% Remaining @ 1 hours) [1]	Assay 2 (SIF) (% @ Remaining 4 hours) [2]	Assay 3 (% Remaining at 24 h) [3]
CCCC(=O)Oc1cc(OC(=O)CCC)c2c(c1)O[C@H](c1cc(OC(=O)CCC)c(OC(=O)CCC)c(OC(=O)CCC)c1)[C@H](OC(=O)c1cc(OC(=O)CCC)c(OC(=O)CCC)c(OC(=O)CCC)c1)C2 [Compound 3, [(2R,3R)-5,7-di(butanoyloxy)-2-[3,4,5-tri(butanoyloxy)phenyl]chroman-3-yl] 3,4,5-tri(butanoyloxy)benzoate]	C (C: >75% of the tested compound remaining)	C (C: >75% of the tested compound remaining)	C (C: >75% of the tested compound remaining)
CCC(=O)OC[C@H]1O[C@@H](OC(=O)CCc2c[nH]c3ccccc23)[C@H](OC(=O)CC)[C@@H](OC(=O)CC)[C@@H]1OC(=O)CC [Compound 144, [(2R,3R,4S,5R,6S)-6-{[3-(1H-indol-3-yl)propanoyl]oxy}-3,4,5-tris(propanoyloxy)oxan-2-yl]methyl Propanoate]	C (C: >75% of the tested compound remaining)	A (A: <25% of the tested compound remaining)	A (A: <25% of the tested compound remaining)
O=C(Cc1c[nH]c2ccccc12)Oc1cc(C(=O)O)cc(OC(=O)Cc2c[nH]c3ccccc23)c1OC(=O)Cc1c[nH]c2ccccc12 [Compound 237, 3,4,5-tris({[2-(1H-indol-3-yl)acetyl]oxy})benzoic Acid]	C (C: >75% of the tested compound remaining)	A (A: <25% of the tested compound remaining)	A (A: <25% of the tested compound remaining)
CCC(=O)O[C@H]1[C@H](OC(=O)CC)[C@@H](OC(=O)CCc2c[nH]c3ccccc23)O[C@@H](C)[C@H]1OC(=O)CC [Compound 110, (2R,3S,4R,5R,6S)-6-methyl-3,4,5-tris(propanoyloxy)oxan-2-yl 3-(1H-indol-3-yl)propanoate]	C (C: >75% of the tested compound remaining)	C (C: >75% of the tested compound remaining)	A (A: <25% of the tested compound remaining)
CCCC(=O)O[C@@H]1[C@@H](OC(=O)CCC)[C@H](Oc2ccccc2C(=O)O)OC[C@H]1OC(=O)CCC [Compound 227, 2-{[(2S,3R,4S,5R)-3,4,5-tris(butanoyloxy)oxan-2-yl]oxy}benzoic Acid]	C (C: >75% of the tested compound remaining)	A (A: <25% of the tested compound remaining)	A (A: <25% of the tested compound remaining)
CCC(=O)O[C@H]1OC[C@@H](OC(=O)CC)[C@@H](OC(=O)CC)[C@H]1OC(=O)CC [Compound 133, (2R,3R,4R,5R)-3,4,5-tris(propanoyloxy)oxan-2-yl Propanoate]	C (C: >75% of the tested compound remaining)	A (A: <25% of the tested compound remaining)	A (A: <25% of the tested compound remaining)
CCC(=O)OC1O[C@H](C(=O)O)[C@@H](OC(=O)CC)[C@H](OC(=O)CC)[C@H]1OC(=O)CC (stereo in doubt) [Compound 80, (2S,3S,4S,5R,6S)-3,4,5,6-tetrakis(propanoyloxy)oxane-2-carboxylic Acid]	C (C: >75% of the tested compound remaining)	A (A: <25% of the tested compound remaining)	A (A: <25% of the tested compound remaining)
CCCC(=O)O[C@H]1[C@H](OC)OC[C@@H](OC(=O)CCC)[C@H]1OC(=O)CCC [Compound 83, (2R,3R,4R,5R)-3,5-bis(butanoyloxy)-2-methoxyoxan-4-yl Butanoate]	C (C: >75% of the tested compound remaining)	A (A: <25% of the tested compound remaining)	A (A: <25% of the tested compound remaining)
CC(=O)O[C@H]1O[C@H](C(=O)O)[C@@H](OC(C)=O)[C@H](OC(C)=O)[C@H]1OC(C)=O [Compound 195, (2S,3S,4S,5R,6R)-3,4,5,6-tetraacetoxytetrahydro-2H-pyran-2-carboxylic Acid]	C (C: >75% of the tested compound remaining)	C (C: >75% of the tested compound remaining)	B (B: 25-75% of the tested compound remaining)
O=C(CCc1c[nH]c2ccccc12)O[C@@H]1OC[C@@H](OC(=O)CCc2c[nH]c3ccccc23)[C@@H](OC(=O)CCc2c[nH]c3ccccc23)[C@H]1OC(=O)CCc1c[nH]c2ccccc12 [Compound 113, (2S,3R,4R,5R)-3,4,5-tris({[3-(1H-indol-3-yl)propanoyl]oxy})oxan-2-yl 3-(1H-indol-3-yl)propanoate]	C (C: >75% of the tested compound remaining)	A (A: <25% of the tested compound remaining)	A (A: <25% of the tested compound remaining)
O=C(Cc1c[nH]c2ccccc12)O[C@H]1OC[C@H](OC(=O)Cc2c[nH]c3ccccc23)[C@H](OC(=O)Cc2c[nH]c3ccccc23)[C@H]1OC(=O)Cc1c[nH]c2ccccc12 [Compound 180, (2R,3R,4S,5S)-3,4,5-tris({[2-(1H-indol-3-yl)acetyl]oxy})oxan-2-yl 2-(1H-indol-3-yl)acetate]	B (B: 25-75% of the tested compound remaining)	A (A: <25% of the tested compound remaining)	A (A: <25% of the tested compound remaining)
CCC(=O)O[C@@H]1[C@@H](OC(=O)CC)[C@H](OC)OC[C@H]1OC(=O)CC [Compound 106, (2R,3R,4S,5R)-2-methoxy-4,5-bis(propanoyloxyoxan-3-yl Propanoate]	C (C: >75% of the tested compound remaining)	A (A: <25% of the tested compound remaining)	A (A: <25% of the tested compound remaining)
CCC(=O)O[C@@H]1[C@@H](OC(=O)CC)[C@H](C)O[C@H](OC(=O)/C=C/c2c[nH]c3ccccc23)[C@@H]1OC(=O)CC [Compound 139, (2R,3R,4R,5S,6S)-6-methyl-3,4,5-tris(propanoyloxy)oxan-2-yl (2E)-3-(1H-indol-3-yl)prop-2-enoate]	B (B: 25-75% of the tested compound remaining)	A (A: <25% of the tested compound remaining)	B (B: 25-75% of the tested compound remaining)
CCCC(=O)O[C@@H]1[C@@H](OC(=O)CCC)[C@@H](OC)OC[C@H]1OC(=O)CCC [Compound 104, (2S,3R,4S,5R)-4,5-bis(butanoyloxy)-2-methoxyoxan-3-yl Butanoate]	B (B: 25-75% of the tested compound remaining)	A (A: <25% of the tested compound remaining)	A (A: <25% of the tested compound remaining)
CCCC(=O)O[C@@H]1[C@@H](OC(=O)CCC)[C@@H](OC(=O)CCc2c[nH]c3ccccc23)OC[C@H]1OC(=O)CCC [Compound 128, (2R,3R,4S,5R)-4,5-bis(butanoyloxy)-2-{[3-(1H-indol-3-yl)propanoyl]oxy}oxan-3-yl Butanoate]	C (C: >75% of the tested compound remaining)	A (A: <25% of the tested compound remaining)	A (A: <25% of the tested compound remaining)
CCC(=O)O[C@@H]1[C@@H](OC(=O)CC)[C@@H](OC)OC[C@@H]1OC(=O)CC [Compound 86, (2S,3R,4S,5S)-2-methoxy-3,5-bis(propanoyloxy)oxan-4-yl Propanoate]	C (C: >75% of the tested compound remaining)	B (B: 25-75% of the tested compound remaining)	C (C: >75% of the tested compound remaining)
CCC(=O)O[C@@H]1[C@@H](OC(=O)CC)[C@@H](OC)OC[C@H]1OC(=O)CC [Compound 105, (2S,3R,4S,5R)-2-methoxy-4,5-bis(propanoyloxy)oxan-3-yl Propanoate]	C (C: >75% of the tested compound remaining)	B (B: 25-75% of the tested compound remaining)	A (A: <25% of the tested compound remaining)
CCC(=O)O[C@H]1[C@H](OC)OC[C@@H](OC(=O)CC)[C@H]1OC(=O)CC [Compound 84, (2R,3R,4R,5R)-2-methoxy-3,5-bis(propanoyloxy)oxan-4-yl Propanoate]	C (C: >75% of the tested compound remaining)	C (C: >75% of the tested compound remaining)	B (B: 25-75% of the tested compound remaining)
CCC(=O)O[C@@H]1[C@@H](OC(=O)CC)[C@@H](OC(=O)CC)C(O)O[C@H]1C (stereo partly drawn) [Compound 145, (3R,4R,5S,6S)-2-hydroxy-6-methyl-4,5-bis(propanoyloxy)oxan-3-yl Propanoate]	C (C: >75% of the tested compound remaining)	A (A: <25% of the tested compound remaining)	C (C: >75% of the tested compound remaining)
